Experimental findings from ChEMBL document CHEMBL2412969, “Antihyperglycemic and antihyperlipidemic activities of 2-(4-[(2-hydroxybenzyl) amino]-phenyl amino-methyl)-phenol in STZ induced diabetic rats” (Eur J Med Chem, 2013) are described below.

Calls of active or inactive are those of the source. No cut-off for these calls is given here.

Data set [1] relates to Rattus norvegicus. Description: Antihyperglycemic activity in Wistar albino rat streptozotocin-induced diabetic model assessed as reduction of blood glucose level at 30 mg/kg, po after 2 hrs (reference value: 386.66 +/- 17.5 mg/dl). It counts as functional.
In data set [2] the test system is Rattus norvegicus. Description: Antihyperglycemic activity in Wistar albino rat streptozotocin-induced diabetic model assessed as reduction of blood glucose level at 20 mg/kg, po after 5 hrs (reference value: 372.2 +/- 16.6 mg/dl). It counts as functional.
In data set [3] the test system is Rattus norvegicus. Description: Antihyperglycemic activity in Wistar albino rat streptozotocin-induced diabetic model assessed as reduction of blood glucose level at 20 mg/kg, po after 4 hrs (reference value: 373.5 +/- 15.6 mg/dl). It counts as functional.
Data set [4] has as its system Rattus norvegicus. Description: Antihyperglycemic activity in Wistar albino rat streptozotocin-induced diabetic model assessed as reduction of blood glucose level at 20 mg/kg, po after 1 hr (reference value: 389.16 +/- 19 mg/dl). The format is functional.
Data set [5] deals with Rattus norvegicus. In words: Hypoglycemic activity in Wistar albino rat assessed as reduction of blood glucose level at 60 mg/kg, po after 6 hrs (reference value: 73.3 +/- 4.4 mg/dl). It counts as ADME, organism-based. On the set-up: dose 60 mg/kg, route oral. The following applies: in vivo.
Data set [6] deals with Rattus norvegicus. In words: Hypoglycemic activity in Wistar albino rat assessed as reduction of blood glucose level at 60 mg/kg, po after 4 hrs (reference value: 75.8 +/- 4.7 mg/dl). It counts as ADME, organism-based. On the set-up: dose 60 mg/kg, route oral. The following applies: in vivo.
The test system of data set [7] is Rattus norvegicus. In words: Hypoglycemic activity in Wistar albino rat assessed as reduction of blood glucose level at 60 mg/kg, po after 3 hrs (reference value: 76.3 +/- 5.4 mg/dl). It counts as ADME, organism-based. Further details: dose 60 mg/kg, route oral. As to conditions: in vivo.
Data set [8] has as its system Rattus norvegicus. In words: Hypoglycemic activity in Wistar albino rat assessed as reduction of blood glucose level at 30 mg/kg, po after 2 hrs (reference value: 76.5 +/- 3.7 mg/dl). The format is ADME, organism-based. As to conditions: in vivo. Further details: dose 30 mg/kg, route oral.
Data set [9] deals with Rattus norvegicus. In words: Hypoglycemic activity in Wistar albino rat assessed as reduction of blood glucose level at 20 mg/kg, po after 6 hrs (reference value: 73.3 +/- 4.4 mg/dl). The format is ADME, organism-based. Further details: dose 20 mg/kg, route oral. The following applies: in vivo.
Data set [10] has as its system Rattus norvegicus. In words: Hypoglycemic activity in Wistar albino rat assessed as reduction of blood glucose level at 20 mg/kg, po after 3 hrs (reference value: 76.3 +/- 5.4 mg/dl). The format is ADME, organism-based. On the set-up: dose 20 mg/kg, route oral. The following applies: in vivo.
Data set [11] concerns Rattus norvegicus. Description: Hepatotoxicity in Wistar albino rat assessed as AST, ALT and ALP level in serum at 30 mg/kg, po qd for 30 days. It counts as toxicity, organism-based. Further details: dose 30 mg/kg, route oral. As to conditions: in vivo, 720 h.
Data set [12] has as its system Rattus norvegicus. In words: Renaltoxicity in Wistar albino rat assessed as urea level in blood at 30 mg/kg, po qd for 30 days. It counts as organism-based. Further details: dose 30 mg/kg, route oral. As to conditions: in vivo, 720 h.
The test system of data set [13] is Rattus norvegicus. In words: Antiatherosclerosis activity in Wistar albino rat streptozotocin-induced diabetic model assessed as protection from atherogenicity at 30 mg/kg, po qd for 30 days relative to control. It counts as functional.
In data set [14] the test system is Rattus norvegicus. In words: Antihyperlipidemic activity in Wistar albino rat streptozotocin-induced diabetic model assessed as increase of serum HDL-cholesterol level at 30 mg/kg, po qd for 30 days. Further details: dose 30 mg/kg. The format is functional, organism-based.
Data set [15] relates to Rattus norvegicus. Description: Antihyperglycemic activity in Wistar albino rat streptozotocin-induced diabetic model assessed as reduction of fasting blood glucose level at 30 mg/kg, po qd measured on day 15 (reference value: 404.2 +/- 29.15 mg/dl). It counts as functional.
For data set [16], the system named is Rattus norvegicus. In words: Hypoglycemic activity in Wistar albino rat assessed as reduction of fasting blood glucose level at 30 mg/kg, po qd measured on day 30 (reference value: 94.8 +/- 10.4 mg/dl). As to conditions: in vivo. The format is ADME, organism-based. On the set-up: dose 30 mg/kg, route oral.
The test system of data set [17] is Rattus norvegicus. In words: Hypoglycemic activity in Wistar albino rat assessed as reduction of fasting blood glucose level at 30 mg/kg, po qd measured on day 15 (reference value: 82.66 +/- 6.05 mg/dl). The format is ADME, organism-based. On the set-up: dose 30 mg/kg, route oral. The following applies: in vivo.
Data set [18] deals with Rattus norvegicus. Description: Hypoglycemic activity in Wistar albino rat assessed as reduction of fasting blood glucose level at 30 mg/kg, po qd measured on day 1 (reference value: 89 +/- 6.4 mg/dl). The format is ADME, organism-based. Further details: dose 30 mg/kg, route oral. The following applies: in vivo.
The test system of data set [19] is Rattus norvegicus. In words: Antihyperglycemic activity in glucose loaded Wistar albino rat streptozotocin-induced diabetic model assessed as reduction of blood glucose level at 30 mg/kg, po after 3 hrs by oral glucose tolerance test. The format is functional. Further details: scale not given: the % may be the effect or the level left.
The subject of data set [20] is Rattus norvegicus. Description: Antihyperglycemic activity in Wistar albino rat streptozotocin-induced diabetic model assessed as reduction of blood glucose level at 60 mg/kg, po after 6 hrs (reference value: 372.5 +/- 15.6 mg/dl). It counts as functional.
The test system of data set [21] is Rattus norvegicus. In words: Antihyperglycemic activity in Wistar albino rat streptozotocin-induced diabetic model assessed as reduction of blood glucose level at 60 mg/kg, po after 3 hrs (reference value: 384.33 +/- 17.33 mg/dl). The format is functional.
Data set [22] concerns Rattus norvegicus. In words: Antihyperglycemic activity in Wistar albino rat streptozotocin-induced diabetic model assessed as reduction of blood glucose level at 60 mg/kg, po after 2 hrs (reference value: 386.66 +/- 17.5 mg/dl). The format is functional.
For data set [23], the system named is Rattus norvegicus. In words: Antihyperglycemic activity in Wistar albino rat streptozotocin-induced diabetic model assessed as reduction of blood glucose level at 60 mg/kg, po after 1 hr (reference value: 389.16 +/- 19 mg/dl). It counts as functional.
The subject of data set [24] is Rattus norvegicus. In words: Antihyperglycemic activity in Wistar albino rat streptozotocin-induced diabetic model assessed as reduction of blood glucose level at 30 mg/kg, po after 6 hrs (reference value: 372.5 +/- 15.6 mg/dl). The format is functional.

As for `Oc1ccccc1CNc1ccc(NCc2ccccc2O)cc1`, the Activity with Rattus norvegicus [1] is 252.1 mg/dL; in the data set on Rattus norvegicus [2], 204.8 mg/dL; with Rattus norvegicus [3], 265.16 mg/dL; in the data set on Rattus norvegicus [4], 357.5 mg/dL; in the data set on Rattus norvegicus [5], 75 mg/dL; with Rattus norvegicus [6], 79.3 mg/dL. The Activity was 73.6 mg/dL in the data set on Rattus norvegicus [7]; 73.66 mg/dL in the data set on Rattus norvegicus [8]; 70 mg/dL in the data set on Rattus norvegicus [9]; 74.16 mg/dL in the data set with Rattus norvegicus [10]; “Non-toxic” with Rattus norvegicus [11]; 43.25 mg/dL in the data set on Rattus norvegicus [12]. Moreover, the Activity was 66.8% with Rattus norvegicus [13]; 247.5 mg/dL in the data set on Rattus norvegicus [15]; 98.67 mg/dL in the data set with Rattus norvegicus [16]; 80.66 mg/dL in the data set on Rattus norvegicus [17]; 90.6 mg/dL with Rattus norvegicus [18]; 56% in the data set with Rattus norvegicus [19]. Moreover, the Activity with Rattus norvegicus [20] came to 36.8 mg/dL; in the data set with Rattus norvegicus [21], 61.4 mg/dL; with Rattus norvegicus [22], 109.5 mg/dL; with Rattus norvegicus [23], 233.16 mg/dL; in the data set on Rattus norvegicus [24], 102 mg/dL. The outcome with Rattus norvegicus [14] was Active.
